# Data published in patent US7919517B2, “Indazole derivatives” (Kyowa Hakko Kirin Co., Ltd., priority 2003, dated 2011).
# Counter-ions that a name gives are not always drawn.
# Experiments:
# Assay type in all cases: cell-based
# [1] = tested on: human acute myeloid leukemia cell line MV-4-11; assay: Cytostatic activity on leukemia cell line MV-4-11 (WST-1); conditions: Homo sapiens, MV4-11; 10 μmol/L, 72 hours, MV-4-11 cells; read-out: cytostatic rate MV-4-11 (%) (10 μmol/L)
# Procedure: (§1) The cytostatic rates of a test compound on human acute myeloid leukemia cell lines MV-4-11 and ML-1, and human chronic myeloid leukemia cell line K562 were determined in the following manner.
# (§2) Each cell was cultured using Roswell Park Memorial Institute's Medium (RPMI) 1640 (Gibco, Catalog No. 11875-093) containing 10% fetal bovine serum (Gibco, Catalog No. 10437-028) and 1% penicillin/streptomycin (1:1) (Gibco, Catalog No. 15140-122). Each 80 μL of the MV-4-11 cell having a concentration of 7.5×10^4 cells/mL (or the ML-1 cell or K562 cell having a concentration of 2.5×10^4 cells/mL) was inoculated to wells of a TC MICROWELL 96U plate (Nalge Nunc International, Catalog No. 163320) and was cultured in a 5% carbon dioxide gas incubator at 37° C. for 4 hours. As a blank, only RPMI medium (80 μL) was added to a well. Each 20 μL of a solution of the test compound in dimethyl sulfoxide (DMSO) which was prepared to make the final concentration to 10 μmol/L, was added to the MV-4-11 cell, ML-1 cell and K562 cell, respectively. Each 20 μL of DMSO was added to the control well and the blank well to […]. After adding the test compound, the cells were incubated in a 5% carbon dioxide gas incubator at 37° C. for 72 hours. After adding 20 μL of WST-1 reagent {4-[3-(4-iodophenyl)-2-(4-nitrophenyl)-2H-5-tetrazolio]-1,3-benzene disulfonate sodium salt} (Roche Diagnostics K.K., Catalog No. 1644807) diluted to 50% with RPMI medium, the cells were further incubated at 37° C. for 2 hours. Then, the absorbances at 450 nm (reference wavelength: 690 nm) were determined with a microplate spectrophotometer SPECTRA max 340PC (Molecular Devices Corporation). The relative growth (%) of a well to which the test compound had been added was determined while setting the absorbance of a well to which not the test compound but DMSO alone had been added (control) at 100% and that of a well containing RPMI medium alone at 0%. The cytostatic rate (%) of the test compound was determined by subtracting the calculated relative growth from 100.
# [2] = tested on: human acute myeloid leukemia cell line ML-1; assay: Cytostatic activity on leukemia cell line ML-1 (WST-1); conditions: Homo sapiens, ML1; 10 μmol/L, 72 hours, ML-1 cells; read-out: cytostatic rate ML-1 (%) (10 μmol/L)
# Procedure: as §1, §2
# [3] = tested on: human chronic myeloid leukemia cell line K562; assay: Cytostatic activity on leukemia cell line K562 (WST-1); conditions: Homo sapiens; 10 μmol/L, 72 hours, K562 cells; read-out: cytostatic rate K562 (%) (10 μmol/L)
# Procedure: as §1, §2
# [4] = tested on: human colon cancer cell line Colo205; assay: Cytostatic activity on solid carcinoma cell line Colo205 (WST-1); conditions: Homo sapiens, COLO 205; 10 μmol/L, 72 hours, Colo205 cells; read-out: cytostatic rate Colo205 (%) (10 μmol/L)
# Procedure: as §2
# The cytostatic rate of a test compound on the human colon cancer cell line Colo205 was determined in the following manner.
# The cell was cultured using Roswell Park Memorial Institute's Medium (RPMI) 1640 (Gibco, Catalog No. 11875-093) containing 10% fetal bovine serum (Gibco, Catalog No. 10437-028) and 1% penicillin/streptomycin (1:1) (Gibco, Catalog No. 15140-122). Each 80 μL of the Colo205 having a concentration of 1.25×10^4 cells/mL was inoculated to wells of a TC MICROWELL 96F plate (Nalge Nunc International, Catalog No. 167008) and was cultured in a 5% carbon dioxide gas incubator at 37° C. for 24 hours. As a blank, only RPMI (80 μL) was added to a well. Each 20 μL of a solution of the test compound in DMSO which was prepared to make the final concentration to 10 μmol/L, was added to the Colo205 cell. Each 20 μL of DMSO was added to the control well and the blank well to […]. After adding the test compound, the cell was incubated in a 5% carbon dioxide gas incubator at 37° C. for 72 hours. The cytostatic rate (%) was then determined in the same way as the leukemia cell lines.
Structure (SMILES),inhibition at 10 µM [1] [%],inhibition at 10 µM [2] [%],inhibition at 10 µM [3] [%],inhibition at 10 µM [4] [%]
"O=C(c1ccc(/C=C/c2n[nH]c3ccccc23)cc1)N1CCCNCC1 [Compound 85, (E)-1-{4-[2-(1H-indazol-3-yl)vinyl]benzoyl}homopiperazine dihydrochloride]",99,78,90,89
"NC(=O)C1CCN(C(=O)c2ccc(/C=C/c3n[nH]c4ccccc34)cc2)CC1 [Compound 86, (E)-1-{4-[2-(1H-indazol-3-yl)vinyl]benzoyl}piperidine-4-carboxamide]",98,87,88,89
"O=C(c1ccc(/C=C/c2n[nH]c3ccccc23)cc1)N1CCC(O)CC1 [Compound 87, (E)-1-{4-[2-(1H-indazol-3-yl)vinyl]benzoyl}-4-hydroxypiperidine]",99,88,76,86
"O=C1CN(C(=O)c2ccc(/C=C/c3n[nH]c4ccccc34)cc2)CCN1 [Compound 89, (E)-4-{4-[2-(1H-indazol-3-yl)vinyl]benzoyl}piperazin-2-one]",98,86,61,92
"CC(C)(O)CC(=O)N1CCN(C(=O)c2ccc(/C=C/c3n[nH]c4ccccc34)cc2)CC1 [Compound 90, (E)-4-(3-methyl-3-hydroxybutyryl)-1-{4-[2-(1H-indazol-3-yl)vinyl]benzoyl}piperazine]",98,79,85,88
"CN(C)C(=O)C1CCN(C(=O)c2ccc(/C=C/c3n[nH]c4ccccc34)cc2)CC1 [Compound 92, (E)-N,N-dimethyl-1-{4-[2-(1H-indazol-3-yl)vinyl]benzoyl}piperidine-4-carboxamide]",98,88,89,89
"Cc1cc(/C=C/c2n[nH]c3ccccc23)ccc1C(=O)N1CCNCC1 [Compound 95, (E)-1-{4-[2-(1H-indazol-3-yl)vinyl]-2-methylbenzoyl}piperazine dihydrochloride]",96,70,93,86
"COCCC(=O)N1CCN(C(=O)c2ccc(/C=C/c3n[nH]c4ccccc34)cc2)CC1 [Compound 98, (E)-4-(3-methoxypropionyl)-1-{4-[2-(1H-indazol-3-yl)vinyl]benzoyl}piperazine]",98,79,89,88
"O=C(NC1CCN(C(=O)c2ccc(/C=C/c3n[nH]c4ccccc34)cc2)CC1)N1CCOCC1 [Compound 99, (E)-1-{4-[2-(1H-indazol-3-yl)vinyl]benzoyl}-4-(morpholinocarbonylamino)piperidine]",97,86,94,95
"C[C@H]1CN(C(=O)c2ccc(/C=C/c3n[nH]c4ccccc34)cc2)CCN1 [Compound 101, (S)-(E)-1-{4-[2-(1H-indazol-3-yl)vinyl]benzoyl}-3-methylpiperazine dihydrochloride]",99,77,92,87
"O=C(c1ccc(/C=C/c2n[nH]c3ccccc23)cc1)N1CCN(CCO)CC1 [Compound 105, (E)-1-{4-[2-(1H-indazol-3-yl)vinyl]benzoyl}-4-(2-hydroxyethyl)piperazine]",96,85,90,88
"O=C(c1ccc(/C=C/c2n[nH]c3ccccc23)cc1)N1CCC(N2CCOCC2)CC1 [Compound 106, (E)-1-{4-[2-(1H-indazol-3-yl)vinyl]benzoyl}-4-morpholinopiperidine]",98,58,35,37
"CC(C)N1CCN(C(=O)c2ccc(/C=C/c3n[nH]c4ccccc34)cc2)CC1 [Compound 107, (E)-1-{4-[2-(1H-indazol-3-yl)vinyl]benzoyl}-4-isopropylpiperazine hydrochloride]",98,77,91,84
"CNCCNC(=O)c1ccc(/C=C/c2n[nH]c3ccccc23)cc1 [Compound 112, (E)-N-[2-(methylamino)ethyl]-4-[2-(1H-indazol-3-yl)vinyl]benzamide hydrochloride]",98,83,81,88
"CCC(C)N1CCN(C(=O)c2ccc(/C=C/c3n[nH]c4ccccc34)cc2)CC1=O (stereo not drawn) [Compound 116, (E)-4-{4-[2-(1H-indazol-3-yl)vinyl]benzoyl}-1-(sec-butyl)piperazin-2-one hydrochloride]",98,79,88,91
"NC1CCN(C(=O)c2ccc(/C=C/c3n[nH]c4ccccc34)cc2)C1 (stereo not drawn) [Compound 122, (E)-1-{4-[2-(1H-indazol-3-yl)vinyl]benzoyl}-3-aminopyrrolidine dihydrochloride]",98,79,93,89
"O=C(c1ccc(/C=C/c2n[nH]c3ccccc23)cc1)N1CCN(C(=O)[C@H]2CCNC2)CC1 [Compound 124, (S)-(E)-1-{4-[2-(1H-indazol-3-yl)vinyl]benzoyl}-4-(pyrrolidin-3-ylcarbonyl)piperazine dihydrochloride]",98,83,94,87
"CN(C)CC(=O)N1CCN(C(=O)c2ccc(/C=C/c3n[nH]c4ccccc34)cc2)CC1 [Compound 125, (E)-4-dimethylaminoacetyl-1-{4-[2-(1H-indazol-3-yl)vinyl]benzoyl}piperazine]",98,79,91,86
"CCOCC(=O)N1CCN(C(=O)c2ccc(/C=C/c3n[nH]c4ccccc34)cc2)CC1 [Compound 128, (E)-4-ethoxyacetyl-1-{4-[2-(1H-indazol-3-yl)vinyl]benzoyl}piperazine]",98,79,87,88
"CC(C)(N)C(=O)N1CCN(C(=O)c2ccc(/C=C/c3n[nH]c4ccccc34)cc2)CC1 [Compound 131, (E)-4-(2-amino-2-methylpropionyl)-1-{4-[2-(1H-indazol-3-yl)vinyl]benzoyl}piperazine dihydrochloride]",99,85,98,91
"CN(C)C(=O)NC1CCN(C(=O)c2ccc(/C=C/c3n[nH]c4ccccc34)cc2)CC1 [Compound 132, (E)-4-dimethylcarbamoylamino-1-{4-[2-(1H-indazol-3-yl)vinyl]benzoyl}piperidine]",100,88,95,91
